Data set [1] has as its target Acetylcholinesterase (Homo sapiens) (UniProt P22303). The data set is described as follows: Inhibition of human AChE using acetylthiocholine iodide as substrate at 10 uM incubated for 20 mins followed by substrate addition by Ellman's method relative to control. On the technique in general: Ellman's reagent forms a yellow product with free thiols.
Data set [2] deals with T1, Cholinesterase (Homo sapiens, UniProt P06276). The data set is described as follows: Inhibition of human BChE using butyrylthiocholine iodide as substrate incubated for 20 mins followed by substrate addition by Ellman's method.
Data set [3] relates to N9. In words: Immunomodulatory activity in mouse N9 microglial cells assessed as reduction in LPS-induced IL-1beta release at 2.5 to 5 uM incubated for 24 hrs by Western blot analysis. Type of data set: functional, cell-based. The following applies: dose 2.5-5 µM. (In western blotting, separated proteins are transferred to a membrane and probed.)
Data set [4] has as its system HT-22. In words: Neuroprotective activity against glutamate induced-oxidative stress in mouse HT-22 cells assessed as cell viability at 1 to 25 uM incubated for 24 hrs by MTT assay. It counts as functional, cell-based. As to conditions: dose 1-25 µM. A general note: Formazan colour is commonly taken as a measure of viable cells.
Data set [5] in a line: Metal chelating activity assessed as compound-Cu2+ complex formation at ratio of 10:1 incubated for 2 mins followed by pyrocatechol violet addition and further incubated for 10 mins in dark by absorbance based assay. As to conditions: time 12.0 min.
Data set [6] can be described thus: Metal chelating activity assessed as Fe2+ -ferrozoine complex formation at ratio of 10:1 incubated for 2 mins followed by ferrozine addition and further incubated for 10 mins by absorbance based assay. The following applies: time 12.0 min.
The test system of data set [7] is N9. The data set is described as follows: Immunomodulatory activity in mouse N9 microglial cells assessed as reduction in LPS-induced iNOS expression at 2.5 to 5 uM incubated for 24 hrs by Western blot analysis. Type of data set: functional, cell-based. The following applies: dose 2.5-5 µM.
A short description of data set [8]: Neurotoxicity in mouse HT-22 cells assessed as reduction in cell viability at 25 uM incubated for 24 hrs by MTT assay. Type of data set: cell-based. The following applies: ht-22, 24 h.
The subject of data set [9] is N9. The data set is described as follows: Immunomodulatory activity in mouse N9 microglial cells assessed as reduction in LPS-induced nitrite accumulation at 2.5 to 5 uM incubated for 24 hrs by Griess reagent based colorimetry assay. Type of data set: functional, cell-based. As to conditions: dose 2.5-5 µM.
The subject of data set [10] is N9. The data set is described as follows: Immunomodulatory activity in mouse N9 microglial cells assessed as increase in LPS-induced TREM2 expression at 2.5 to 5 uM incubated for 24 hrs by Western blot analysis. Type of data set: functional, cell-based. As to conditions: dose 2.5-5 µM.
Data set [11] relates to Mus musculus. In words: Anti-alzheimer activity against amyloid beta 25-35 induced learning impairments in wild type 129 SV mouse assessed as increase in latency to enter dark compartment at 0.3 mg/kg, ip administered once daily for 7 days and measured on day 9 by passive avoidance test. As to conditions: time 7.0 day. It counts as functional, organism-based.
In data set [12] the test system is Mus musculus. The data set is described as follows: Anti-alzheimer activity against amyloid beta 25-35 induced learning impairments in BChE KO mouse assessed as memory deficit in alternation performance by measuring total number of arm entries at 0.3 mg/kg, ip qd administered for 7 days and measured on day 8 by Y-maze test. Type of data set: functional, organism-based. The following applies: time 7.0 day.

Data set [13] deals with Mus musculus. In words: Anti-alzheimer activity against amyloid beta 25-35 induced learning impairments in Swiss mouse assessed as latency to enter dark compartment at 0.1 mg/kg, ip administered once daily for 7 days and measured on day 8 by passive avoidance test. It counts as functional, organism-based. As to conditions: time 7.0 day.
A short description of data set [14]: Toxicity in Swiss mouse assessed as change in normal behaviour at 0.1 to 3 mg/kg, ip administered for 7 days. Type of data set: organism-based. The following applies: in vivo, 168 h, dose 0.1-3 mg/kg, time 7 day.
Data set [15] has as its system Mus musculus. In words: Anti-alzheimer activity against amyloid beta 25-35 induced learning impairments in Swiss mouse assessed as increase in spontaneous alteration performance by measuring total number of arm entries at 0.3 to 1 mg/kg, ip administered once daily for 7 days and measured on day 8 by Y-maze test. Type of data set: functional, organism-based. As to conditions: dose 0.3-1 mg/kg, time 7.0 day.

For data set [16], the system named is HT-22. In words: Neuroprotective activity against glutamate induced-oxidative stress in mouse HT-22 cells assessed as cell viability at 5 uM incubated for 24 hrs by MTT assay. It counts as functional, cell-based.
In data set [17] the test system is Mus musculus. In words: Anti-alzheimer activity against amyloid beta 25-35 induced learning impairments in BChE KO mouse assessed as increase in latency to enter dark compartment at 0.3 mg/kg, ip administered once daily for 7 days and measured on day 9 by passive avoidance test. It counts as functional, organism-based. As to conditions: time 7.0 day.
For data set [18], the system named is N9. In words: Immunomodulatory activity in mouse N9 microglial cells assessed as reduction in LPS-induced nitrite accumulation at 0.1 to 5 uM incubated for 24 hrs by Griess reagent based colorimetry assay. It counts as functional, cell-based. As to conditions: dose 0.1-5 µM.
Data set [19] has as its system Mus musculus. The data set is described as follows: Anti-alzheimer activity against amyloid beta 25-35 induced learning impairments in wild type 129 SV mouse assessed as increase in spontaneous alternation performance by measuring total number of arm entries at 0.3 mg/kg, ip administered once daily for 7 days and measured on day 8 by Y-maze test. Type of data set: functional, organism-based. The following applies: time 7.0 day.

The target of data set [20] is T1, Cholinesterase.
Description: Binding affinity to human serum BChE assessed as half life
For data set [21], the system named is N9. In words: Immunomodulatory activity in mouse N9 microglial cells assessed as reduction in LPS-induced iNOS expression at 0.1 to 5 uM incubated for 24 hrs by Western blot analysis. The following applies: dose 0.1-5 µM. Type of data set: functional, cell-based.
The nature of data set [22]: Toxicity in Swiss mouse assessed as change in weight gain at 0.1 to 3 mg/kg, ip administered for 7 days. Type of data set: organism-based. The following applies: in vivo, 168 h, dose 0.1-3 mg/kg, time 7 day.
The test system of data set [23] is N9. In words: Immunomodulatory activity in mouse N9 microglial cells assessed as reduction in LPS-induced IL-1beta release at 0.5 to 5 uM incubated for 24 hrs by Western blot analysis. It counts as functional, cell-based. As to conditions: dose 0.5-5 µM.
The subject of data set [24] is Mus musculus. In words: Anti-alzheimer activity against amyloid beta 25-35 induced learning impairments in Swiss mouse assessed as latency to enter dark compartment at 0.3 mg/kg, ip administered once daily for 7 days and measured on day 8 by passive avoidance test. It counts as functional, organism-based. As to conditions: time 7.0 day.
The test system of data set [25] is N9. In words: Immunomodulatory activity in mouse N9 microglial cells assessed as reduction in LPS-induced IL-1beta release at 0.1 to 5 uM incubated for 24 hrs by Western blot analysis. As to conditions: dose 0.1-5 µM. It counts as functional, cell-based.
For data set [26], the system named is Mus musculus. The data set is described as follows: Anti-alzheimer activity against amyloid beta 25-35 induced learning impairments in Swiss mouse assessed as increase in spontaneous alteration performance by measuring total number of arm entries at 1 mg/kg, ip administered once daily for 7 days and measured on day 8 by Y-maze test. It counts as functional, organism-based. As to conditions: time 7.0 day.

Data set [27] concerns HT-22. In words: Neuroprotective activity against glutamate induced-oxidative stress in mouse HT-22 cells assessed as cell viability at 10 uM incubated for 24 hrs by MTT assay. It counts as functional, cell-based.

The source made the active and inactive calls. The calls are words filed in the database; no cut-off is given here.

Acetylcholinesterase (Homo sapiens), sequence (P22303 whole entry): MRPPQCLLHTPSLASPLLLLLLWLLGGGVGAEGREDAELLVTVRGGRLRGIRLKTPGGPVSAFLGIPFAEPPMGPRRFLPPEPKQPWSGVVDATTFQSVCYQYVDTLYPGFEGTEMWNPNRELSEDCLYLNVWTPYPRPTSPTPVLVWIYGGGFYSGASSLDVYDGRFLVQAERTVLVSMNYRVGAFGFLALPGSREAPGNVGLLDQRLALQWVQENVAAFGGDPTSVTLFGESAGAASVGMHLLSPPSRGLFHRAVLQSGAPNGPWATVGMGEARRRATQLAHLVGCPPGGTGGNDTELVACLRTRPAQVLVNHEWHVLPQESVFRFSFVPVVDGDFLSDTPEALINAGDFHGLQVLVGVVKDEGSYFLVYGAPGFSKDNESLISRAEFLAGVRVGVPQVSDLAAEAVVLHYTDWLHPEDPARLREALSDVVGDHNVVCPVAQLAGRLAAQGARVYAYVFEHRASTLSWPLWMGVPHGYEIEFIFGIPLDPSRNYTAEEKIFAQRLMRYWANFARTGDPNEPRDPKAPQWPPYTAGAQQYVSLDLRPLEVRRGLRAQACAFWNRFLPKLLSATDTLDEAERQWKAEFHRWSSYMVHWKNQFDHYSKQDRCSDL
T1 sequence (P06276 whole entry): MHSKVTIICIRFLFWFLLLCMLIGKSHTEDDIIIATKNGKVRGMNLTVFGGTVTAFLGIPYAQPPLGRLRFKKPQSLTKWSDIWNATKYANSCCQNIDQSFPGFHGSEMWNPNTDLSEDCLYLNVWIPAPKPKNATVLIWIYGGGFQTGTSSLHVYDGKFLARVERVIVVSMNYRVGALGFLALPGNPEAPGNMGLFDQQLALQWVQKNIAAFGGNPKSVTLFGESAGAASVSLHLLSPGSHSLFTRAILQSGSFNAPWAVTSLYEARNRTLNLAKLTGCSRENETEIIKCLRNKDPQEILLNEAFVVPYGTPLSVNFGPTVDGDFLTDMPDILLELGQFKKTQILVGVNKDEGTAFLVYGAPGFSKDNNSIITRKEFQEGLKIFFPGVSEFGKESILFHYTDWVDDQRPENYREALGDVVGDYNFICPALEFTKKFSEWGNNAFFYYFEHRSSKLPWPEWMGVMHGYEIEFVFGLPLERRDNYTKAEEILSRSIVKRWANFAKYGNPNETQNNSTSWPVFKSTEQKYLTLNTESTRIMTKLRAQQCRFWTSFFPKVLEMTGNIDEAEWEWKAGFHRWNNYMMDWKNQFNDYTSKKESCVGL

Molecule `Cc1c(C)c2c(c(C)c1O)CCC(C)(C(=O)NCCCCCCNC(=O)Oc1ccc3c(c1)CN1CCc4ccccc4C1N3C)O2` (stereo not given) returned an inhibition in data set [1] of 24.1%. Moreover, the IC50 was 255 nM in data set [2] (read-out: IC50) and 9330 nM in data set [2] (read-out: pIC50 (converted)).

Consider `COc1cc(/C=C/C(=O)O)ccc1O` [FERULATE], for which the outcome in data set [3], in data set [4], in data set [5], in data set [6], in data set [7] and in data set [9] was inactive. For the same molecule, the Activity result in [8] was “Non-Toxic”.

As to `COc1ccc2[nH]cc(CCNC(=O)CCCCCCNC(=O)Oc3ccc4c(c3)CN3CCc5ccccc5C3N4C)c2c1` (stereo not given), the result in [10], in [11], in [13], in data set [15], in data set [16] and in [18] was Active. In addition, the result in data set [19], in [21] and in data set [23] was Active. In addition, the result in [12], in [5], in [17] and in data set [6] was inactive. Moreover, the Activity entry in data set [14], in data set [8] and in data set [22] was “Non-Toxic” in each case. The molecule also registered an inhibition in data set [1] of 6.5%. The IC50 was 102 nM in data set [2] (read-out: IC50) and 204 nM in data set [2] (read-out: pIC50 (converted)). This molecule also yielded a T1/2 in [20] of 3 h.

`COc1ccc2[nH]cc(CCNC(C)=O)c2c1` [MELATONIN]: the result in data set [3], in [4], in data set [5], in data set [6], in data set [7] and in [9] was inactive. Moreover, in [8], the Activity result was “Non-Toxic”.

`COc1ccc2[nH]cc(CCNC(=O)CCNC(=O)Oc3ccc4c(c3)CN3CCc5ccccc5C3N4C)c2c1` (stereo not given) yielded an inhibition in [1] of 2.3%. Besides, in data set [2] (read-out: IC50), the IC50 is 482 nM.

The molecule `CN1c2ccc(OC(=O)NCCCCCCNC(=O)/C=C/c3ccccc3)cc2CN2CCc3ccccc3C21` (stereo not given) returned an inhibition in data set [1] of 37.5%. In addition, in data set [2] (read-out: IC50), the IC50 was 442 nM.

Regarding `COc1cc(/C=C/C(=O)NCCCCNC(=O)Oc2ccc3c(c2)CN2CCc4ccccc4C2N3C)ccc1O` (stereo not given), the outcome in [24], in data set [10], in data set [25], in data set [26], in data set [27] and in data set [18] was Active. In addition, in data set [21], the result was Active. Moreover, the Activity entry in [14], in data set [8] and in data set [22] was “Non-Toxic” each time. The molecule also displayed an inhibition in data set [1] of 7.7%. Further, the outcome in data set [5] and in data set [6] was inactive. For the same molecule, the results for the IC50 in [2] (read-out: IC50) and in [2] (read-out: pIC50 (converted)) were 155 nM and 115 nM, respectively. Also, in data set [20], the T1/2 is 2.4 h.

In the case of `CN1c2ccc(OC(=O)NCCCCNC(=O)/C=C/c3ccccc3)cc2CN2CCc3ccccc3C21` (stereo not given), the inhibition in data set [1] came to 6.1%. For the same molecule, the IC50 in [2] (read-out: IC50) is 221 nM.

For `COc1cc(/C=C/C(=O)NCCCCCCNC(=O)Oc2ccc3c(c2)CN2CCc4ccccc4C2N3C)ccc1O` (stereo not given), in data set [1], the inhibition was 20%. Moreover, in data set [2] (read-out: IC50), the IC50 worked out at 166 nM.

Turning to `Cc1c(C)c2c(c(C)c1O)CCC(C)(C(=O)NCCCCNC(=O)Oc1ccc3c(c1)CN1CCc4ccccc4C1N3C)O2` (stereo not given), the inhibition in [1] amounted to 15.2%. Moreover, the IC50 in [2] (read-out: IC50) worked out at 791 nM.

In data set [1], `COc1ccc2[nH]cc(CCNC(=O)CCCCNC(=O)Oc3ccc4c(c3)CN3CCc5ccccc5C3N4C)c2c1` (stereo not given) displayed an inhibition of 15%. Further, in data set [2] (read-out: IC50), the IC50 amounted to 127 nM.

A word on the inhibition: it is the percentage by which the read-out fell short of the control. Lower therefore signals a weak effect.
